Results published in a melting point compilation (Tetko et al.; mined from patent text by program, amines drawn as free bases though some values may be those of a salt).

melting point | Structure (SMILES)
128 to 130 °C | CCN(CC)C(=O)c1c(O)c(=O)cc(C)n1C
272 to 274 °C | NS(=O)(=O)c1cc2c(c(C(=O)O)c1)OCCO2
229 to 230 °C | Cc1nc2c(OCc3c(Cl)ccc(N(C)C(=O)Oc4ccc([N+](=O)[O-])cc4)c3Cl)cccn2c1Br
186 to 188 °C | COc1cccc(Cl)c1C1Cc2c(ccn2C)C2C(=O)NC(=O)C12 (stereo not given)
182 to 183 °C | CN1CCN(C2=Nc3ccccc3N3CCc4cc(Cl)cc2c43)CC1
102 to 103 °C | CCCCCN1CCN(c2nc(C)c(C(=O)NCc3cccnc3)s2)C1=O
159 to 161 °C | CCN(CC)CCNc1ccc(CN(C)S(=O)(=O)CC)c2sc3ccccc3c(=O)c12
175 to 177 °C | COc1ccccc1C1OC(=O)NC1=O (stereo not given)
180 to 182 °C | CCOc1c(N)c2c(c(OCC)c1OCC)C(C1c3c(cc4c(c3OC)OCO4)CCN1C)OC2=O (stereo not given)
92 to 94 °C | CCOC(=O)C1=C(C)NC(C)=C(C(=O)OCC)C1c1ccccc1/C=C(\CC)C(=O)OCC
39 to 41 °C | CC1OC(=S)c2c(O)cccc21 (stereo not given)
181 to 183 °C | COC(=O)c1nc(Br)cc(Br)c1O
129 °C | COc1ccc(COc2cccc(C(=O)O)c2OCc2ccc(OC)cc2)cc1
> 220 °C | O=C1C[C@H]2CCN(Cc3ccccc3)C[C@H]2c2ccc(F)cc21 (relative stereo)
352 °C | Nc1cc(C(=O)O)c(N)c2c1C(=O)c1ccccc1C2=O
208 to 209 °C | Cc1ccc(NC(=O)c2ccc(Br)cc2)cc1N1CCN(C)CC1
144 °C | OCC1OC(n2cnc3c(NCc4ccc5ccc6cccc7ccc4c5c67)ncnc32)C(O)C1O (stereo not given)
151 °C | O=Cc1cccc(-c2cnco2)n1
112 °C | Cc1cc([C@H]2CN3C(=O)N(c4cc(Cl)nc(Cl)c4)C(=O)[C@]3(Cc3ccc(OC(F)(F)F)cc3)C2)c(C)[nH]1
138 °C | CNS(=O)(=O)c1sc(C)cc1CC(=O)O

melting point | Structure (SMILES)
221 to 223 °C | CCOC(=O)c1csc(/C=C/c2cccc(NC(=O)Cc3ccccc3C(=O)O)c2)n1
219 °C | Cc1cc2cc(CN3CCC(CC(=O)N(C)C)CC3)cnc2cc1NC(=O)c1ccc(-c2ccc(F)cc2)cc1
110 to 115 °C | CC(C)OC(C)c1cc2c(=O)n(NS(C)(=O)=O)c(=O)[nH]c2cc1C(F)(F)F (stereo not given)
35 to 36 °C | CNC(=O)CC=C(CC(C)C)C(=O)OC(C)(C)C
78 to 79 °C | N#Cc1cnn(-c2c(Cl)cc(Cl)cc2Cl)c1Cl
160 to 161 °C | Cc1cccc2c(C(CO)=C3SC(=O)NC3=O)cccc12
244 to 246 °C | O=C(O)c1cc(Br)c2cccnc2c1O
99 to 102 °C | CCc1c(-c2ccc(OCc3ccccc3)cc2)c2ccc3ccc(CO)c1n32
155 to 158 °C | O=S(CCCCCl)Cc1ccc(Cl)c(Cl)c1 (stereo not given)
183 to 187 °C | COC1CC2(C)C(CCC3C4CC=C(C(C)=O)C4(C)CCC32)CC1O (stereo not given)
116 to 117 °C | CCOC(=O)C1(C(=O)OCC)CCc2cc(Br)ccc2N1Cc1ccccc1
205 to 206 °C | CC(=O)Nc1nc(CCc2ccc(C#N)cc2)cs1
153 to 154 °C | CC(=O)c1cc2c(c(O)c1O)OC(C)(C)CC2C (stereo not given)
96 °C | COc1ccc(CCNC(=O)C=Cc2cccs2)cc1S(=O)(=O)NC(=S)NC(C)C
197 to 198 °C | COc1nc(C)cnc1NS(=O)(=O)c1cccnc1-c1ccc(N2CCOCC2)cc1
120 to 121 °C | COc1ccc2[nH]cc(CCNC=O)c2c1Cl
237 to 239 °C | COc1c(-c2cc3c(s2)CCCC3O)ccc2c(=O)c(C(=O)O)cn(C3CC3)c12 (stereo not given)
115 to 116 °C | Cc1nc(C(F)(F)F)ccc1NC(=NC#N)NC(NC(=O)c1ccc(Cl)cc1)C(C)(Cl)Cl (stereo not given)
183 to 185 °C | O=C(O)c1[nH]c2ccc(Cl)cc2c1S(=O)c1ccccc1 (stereo not given)

Structure (SMILES) | melting point
CC(=O)NC[C@H]1CN(c2ccc(N3CCC4(CC3)CS4)c(F)c2)C(=O)O1 | 152 to 154 °C
